In patent US8956641B2, “Alpha adrenergic receptor agonists for treatment of inflammatory diseases” (Warsaw Orthopedic, Inc., priority 2008, dated 2015):

System: Rat Chronic Constriction Injury Model (neuropathic pain)
Settings: clonidine subcutaneously 0.02 mg/kg/day; FIG. 4
From the text: The inventors evaluated the efficacy of a five Month Clonidine/Polymer Drug Depot in the Rat Chronic Constriction Injury Model. The animal model was the Bennett Model (Wistar rat). The purpose: To determine whether a five month polymer clonidine-eluting depot can improve pain associated behavioral responses in a rat model of neuropathic pain.
Experimental Design: Four loose chromic gut ligatures, 1 mm apart, were tied around the common sciatic nerve at mid-thigh. Each animal received treatment of test or control article-according to the dosing described in Table 5.
The inventors have conducted the present study for a period of 64 days and have employed the following two tests: (1) the Hargreaves test; and (2) the von Frey test. The Hargreaves Tests of Thermal Hyperalgesia were conducted on days 7, 14, 21, 28, 35, 42, 49, 56 and 63. The von Frey monofilament test of mechanical allodynia (performed the day following Thermal testing) were conducted on days-8, 15, 22, 29, 36, 43, 50, 57 and 64.

Clc1cccc(Cl)c1N=C1NCCN1 [clonidine, 2,6-dichloro-N2-imidazolidinyldenebenzenamine]
pain behavioral response (percentage of baseline) for mechanical allodynia compared to unloaded polymer depots: reduced the behavioral response
